Laboratory results from patent publication US20250163057A1, “DCN-1 MODULATING COMPOUNDS AND METHODS OF USE THEREOF” (Cellarity, Inc., priority 2023, published 2025).

Assays:
[1] = tested on: fetal hemoglobin gene HBG1; assay: HBG1 Nanostring Assay in CD34+ HSPC erythroid differentiation culture; type: cell-based, human; details: for EC50: Homo sapiens, 240 h, HBG1 induction, Day10 of erythroid differentiation; for Nanostring Ymax obs (%): relative to a control compound (C1)
Summary of the method: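 HBG1 counts came from direct nCounter hybridization (67° C, 22 h) of day-10 lysates, normalized to ERCC positive controls and a housekeeping gene, giving EC50 and Ymax versus a reference compound. Compounds in 0.1% DMSO were present from day −2 while cells underwent EPO/SCF/IL-3 erythroid differentiation, with IL-3 dropped at day 7, at 37° C.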

[2] = tested on: Cullin-3 (CUL3) neddylation; assay: AlphaLISA assay for Cullin-3 (CUL3) neddylation in TF 1 cells; type: cell-based; details: Homo sapiens, TF-1, 3 h, 3 hours treatment
Summary of the method: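 Neddylated CUL3 was quantified by AlphaLISA in lysates of TF 1 cells exposed for 3 h to test compound in IMDM without supplements. Percent inhibition set between vehicle and 1 μM DI-1548 positive control; IC50 derived by Hill-equation fitting of dose-response curves.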

DCN1 protein = DCN1 protein (Homo sapiens (Human), UniProt Q96GG9); assay: Intact Protein MS Analysis with the RapidFire-TOF System (covalent adduct formation); type: binding; details: MS Emax; 400 nM DCN1, 3 hours at room temperature
DCN1 protein, sequence (Q96GG9 whole entry): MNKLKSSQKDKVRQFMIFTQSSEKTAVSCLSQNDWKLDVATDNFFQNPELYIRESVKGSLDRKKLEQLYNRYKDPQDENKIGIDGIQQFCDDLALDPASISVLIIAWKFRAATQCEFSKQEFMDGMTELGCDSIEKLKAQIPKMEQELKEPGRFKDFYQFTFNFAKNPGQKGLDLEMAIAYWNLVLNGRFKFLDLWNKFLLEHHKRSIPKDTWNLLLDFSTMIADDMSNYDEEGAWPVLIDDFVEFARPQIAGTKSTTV
Summary of the method: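 Tag-cleaved human DCN1 (400 nM) expressed in E. coli, in 25 mM Tris-HCl, 200 mM NaCl, 1 mM DTT, was incubated with 11 compound concentrations for 3 h at room temperature and quenched with 0.2% formic acid. Intact-protein Q-TOF MS with deconvolution detected the compound adduct mass.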

SMILES | EC50 [1] | Nanostring Ymax obs (%) [1] | IC50 [2] | % Adduct Formation (DCN1 protein)
CCN1C(=O)[C@@H](NC(=O)c2cccc(C(F)(F)F)c2)[C@@H](c2ccc(F)cc2)c2c(NC(=O)[C@@H](C)Br)nn(-c3ccccc3)c21 (mixture of isomers) [Compound I-177] | > 1 µM | ++ (Nanostring Ymax greater than 50.0 and less than or equal to 100.0) | 0.1 to 1 µM | + (MS Emax % adduct formation greater than or equal to 0.0 and less than or equal to 30.0)
CCN1C(=O)[C@@H](NC(=O)c2cccc(C(F)(F)F)c2)[C@@H](c2ccc(F)cc2)c2c([C@@H](C)NC(=O)CCl)nn(-c3ccccc3)c21 (mixture of isomers) [Compound I-190] | > 1 µM | ++ (Nanostring Ymax greater than 50.0 and less than or equal to 100.0) | > 1 µM | + (MS Emax % adduct formation greater than or equal to 0.0 and less than or equal to 30.0)
C#CC(=O)N[C@H](C)c1nn(-c2ccccc2)c2c1[C@H](c1ccc(F)cc1)[C@H](NC(=O)c1cccc(C(F)(F)F)c1)C(=O)N2CC (mixture of isomers) [Compound I-236] | ≤ 0.1 µM | + (Nanostring Ymax greater than or equal to 0.0 and less than or equal to 50.0) | ≤ 0.1 µM | +++ (MS Emax % adduct formation greater than 80.0 and less than or equal to 100.0)
C=C(CN(C)C)C(=O)NCc1nn(-c2ccccc2)c2c1[C@H](c1ccc(F)cc1)[C@H](NC(=O)c1cccc(C(F)(F)F)c1)C(=O)N2CC (racemic) [Compound I-18] | 0.1 to 1 µM | + (Nanostring Ymax greater than or equal to 0.0 and less than or equal to 50.0) | ≤ 0.1 µM | +++ (MS Emax % adduct formation greater than 80.0 and less than or equal to 100.0)
CCN1C(=O)[C@@H](NC(=O)c2cccc(C(F)(F)F)c2)[C@@H](c2ccc(F)cc2)c2c(CNC(=O)/C(C#N)=C/C(C)(C)C)nn(-c3ccccc3)c21 (racemic) [Compound I-173] | 0.1 to 1 µM | ++ (Nanostring Ymax greater than 50.0 and less than or equal to 100.0) | ≤ 0.1 µM | +++ (MS Emax % adduct formation greater than 80.0 and less than or equal to 100.0)
C=C(CN(C)C)C(=O)N(C)Cc1nn(-c2ccccc2)c2c1[C@H](c1ccc(F)cc1)[C@H](NC(=O)c1cccc(C(F)(F)F)c1)C(=O)N2CC (racemic) [Compound I-178] | 0.1 to 1 µM | ++ (Nanostring Ymax greater than 50.0 and less than or equal to 100.0) | ≤ 0.1 µM | +++ (MS Emax % adduct formation greater than 80.0 and less than or equal to 100.0)
CCN1C(=O)[C@@H](NC(=O)c2cccc(C(F)(F)F)c2)[C@@H](c2ccc(F)cc2)c2c(CNC(=O)[C@H](C)Cl)nn(-c3ccccc3)c21 (racemic) [Compound I-179] | > 1 µM | + (Nanostring Ymax greater than or equal to 0.0 and less than or equal to 50.0) | 0.1 to 1 µM | + (MS Emax % adduct formation greater than or equal to 0.0 and less than or equal to 30.0)
CCN1C(=O)[C@@H](NC(=O)c2cccc(C(F)(F)F)c2)[C@@H](c2ccc(F)cc2)c2c(CNC(=O)[C@H](C)Br)nn(-c3ccccc3)c21 (racemic) [Compound I-180] | > 1 µM | + (Nanostring Ymax greater than or equal to 0.0 and less than or equal to 50.0) | 0.1 to 1 µM | + (MS Emax % adduct formation greater than or equal to 0.0 and less than or equal to 30.0)
C#CC(=O)NCc1nn(-c2ccccc2)c2c1[C@H](c1ccc(F)cc1)[C@H](NC(=O)c1cccc(C(F)(F)F)c1)C(=O)N2CC (racemic) [Compound I-181] | ≤ 0.1 µM | + (Nanostring Ymax greater than or equal to 0.0 and less than or equal to 50.0) | ≤ 0.1 µM | + (MS Emax % adduct formation greater than or equal to 0.0 and less than or equal to 30.0)
CC#CC(=O)NCc1nn(-c2ccccc2)c2c1[C@H](c1ccc(F)cc1)[C@H](NC(=O)c1cccc(C(F)(F)F)c1)C(=O)N2CC (racemic) [Compound I-184] | – | ++ (Nanostring Ymax greater than 50.0 and less than or equal to 100.0) | 0.1 to 1 µM | + (MS Emax % adduct formation greater than or equal to 0.0 and less than or equal to 30.0)
C=C(CN1CCOCC1)C(=O)N(C)Cc1nn(-c2ccccc2)c2c1[C@H](c1ccc(F)cc1)[C@H](NC(=O)c1cccc(C(F)(F)F)c1)C(=O)N2CC (racemic) [Compound I-185] | – | ++ (Nanostring Ymax greater than 50.0 and less than or equal to 100.0) | 0.1 to 1 µM | + (MS Emax % adduct formation greater than or equal to 0.0 and less than or equal to 30.0)
CCN1C(=O)[C@@H](NC(=O)c2cccc(C(F)(F)F)c2)[C@@H](c2ccc(F)cc2)c2c(Cn3sccc3=O)nn(-c3ccccc3)c21 (racemic) [Compound I-192, rac-N-((4R,5R)-7-ethyl-4-(4-fluorophenyl)-6-oxo-3-((3-oxoisothiazol-2(3H)-yl)methyl)-1-phenyl-4,5,6,7-tetrahydro-1H-pyrazolo[3,4-b]pyridine-5-yl)-3-(trifluoromethyl)benzamide] | 0.1 to 1 µM | + (Nanostring Ymax greater than or equal to 0.0 and less than or equal to 50.0) | 0.1 to 1 µM | ++ (MS Emax % adduct formation greater than 30.0 and less than or equal to 80.0)
C#CC(=O)N(C)Cc1nn(-c2ccccc2)c2c1[C@H](c1ccc(F)cc1)[C@H](NC(=O)c1cccc(C(F)(F)F)c1)C(=O)N2CC (racemic) [Compound I-201] | ≤ 0.1 µM | + (Nanostring Ymax greater than or equal to 0.0 and less than or equal to 50.0) | 0.1 to 1 µM | +++ (MS Emax % adduct formation greater than 80.0 and less than or equal to 100.0)
C=CC(=O)NCc1nn(-c2ccccc2)c2c1[C@H](c1ccc(F)cc1)[C@H](NC(=O)c1cccc(C(F)(F)F)c1)C(=O)N2CC (racemic) [Compound I-202] | – | + (Nanostring Ymax greater than or equal to 0.0 and less than or equal to 50.0) | 0.1 to 1 µM | + (MS Emax % adduct formation greater than or equal to 0.0 and less than or equal to 30.0)
CCN1C(=O)[C@@H](NC(=O)c2cccc(C(F)(F)F)c2)[C@@H](c2ccc(F)cc2)c2c(CNC(=O)/C=C/CN3CCC3)nn(-c3ccccc3)c21 (racemic) [Compound I-203] | 0.1 to 1 µM | + (Nanostring Ymax greater than or equal to 0.0 and less than or equal to 50.0) | 0.1 to 1 µM | + (MS Emax % adduct formation greater than or equal to 0.0 and less than or equal to 30.0)
CCN1C(=O)[C@@H](NC(=O)c2cccc(C(F)(F)F)c2)[C@@H](c2ccc(F)cc2)c2c(CNC(=O)C3=CCC3)nn(-c3ccccc3)c21 (racemic) [Compound I-204] | > 1 µM | + (Nanostring Ymax greater than or equal to 0.0 and less than or equal to 50.0) | 0.1 to 1 µM | + (MS Emax % adduct formation greater than or equal to 0.0 and less than or equal to 30.0)
C=C(C)C(=O)NCc1nn(-c2ccccc2)c2c1[C@H](c1ccc(F)cc1)[C@H](NC(=O)c1cccc(C(F)(F)F)c1)C(=O)N2CC (racemic) [Compound I-206] | > 1 µM | + (Nanostring Ymax greater than or equal to 0.0 and less than or equal to 50.0) | 0.1 to 1 µM | + (MS Emax % adduct formation greater than or equal to 0.0 and less than or equal to 30.0)
CCN1C(=O)[C@@H](NC(=O)c2cccc(C(F)(F)F)c2)[C@@H](c2ccc(F)cc2)c2c(CN(C)C(=O)CCl)nn(-c3ccccc3)c21 (racemic) [Compound I-227] | 0.1 to 1 µM | ++ (Nanostring Ymax greater than 50.0 and less than or equal to 100.0) | ≤ 0.1 µM | ++ (MS Emax % adduct formation greater than 30.0 and less than or equal to 80.0)
CCN1C(=O)[C@@H](NC(=O)c2cccc(C(F)(F)F)c2)[C@@H](c2ccc(F)cc2)c2c(CNC(=O)/C(C#N)=C/C(C)C)nn(-c3ccccc3)c21 (racemic) [Compound I-241] | – | + (Nanostring Ymax greater than or equal to 0.0 and less than or equal to 50.0) | ≤ 0.1 µM | +++ (MS Emax % adduct formation greater than 80.0 and less than or equal to 100.0)
CCN1C(=O)[C@@H](NC(=O)c2cccc(C(F)(F)F)c2)[C@@H](c2ccc(F)cc2)c2c([C@@H](C)NC(=O)C(C)Br)nn(-c3ccccc3)c21 (stereo in doubt) [Compound I-197] | > 1 µM | ++ (Nanostring Ymax greater than 50.0 and less than or equal to 100.0) | > 1 µM | + (MS Emax % adduct formation greater than or equal to 0.0 and less than or equal to 30.0)
